Results as given in ChEMBL document CHEMBL3232977, “Medicinal chemistry optimization of antiplasmodial imidazopyridazine hits from high throughput screening of a SoftFocus kinase library: part 1” (J Med Chem, 2014).

Key:
[1] = physchem; settings: 0.01 M HCl, pH 2
[2] = system: Plasmodium falciparum
Description: (§1) Antimalarial activity against drug-sensitive Plasmodium falciparum NF54

[3] = Volume of distribution at steady state in Sprague-Dawley rat at 3.6 mg/ml, iv; assay type: ADME, organism-based; settings: in vivo, read-out: Vdss
[4] = system: Plasmodium falciparum; assay: Antimalarial activity against Plasmodium falciparum infected in po dosed SCID mouse assessed as reduction of parasitemia administered qd for 4 days; assay type: functional; settings: 96 h
[5] = system: Plasmodium berghei; assay: Antimalarial activity against GFP-transfected Plasmodium berghei ANKA infected in mouse assessed as reduction of parasitemia at 40 mg/kg, po qd for 4 days; assay type: functional
[6] = AUC (0 to infinity) in Sprague-Dawley rat at 3.6 mg/ml, iv; assay type: ADME, organism-based; set-up: dose 3.6 mg/ml, route intravenous, time infinity; settings: plasma
[7] = Tmax in Sprague-Dawley rat at 3.6 mg/ml, po; assay type: ADME, organism-based; settings: in vivo
[8] = system: Plasma; assay: Average plasma concentration in GFP-transfected Plasmodium berghei ANKA infected mouse at 40 mg/kg, po qd for 4 days measured after 24 hrs; assay type: ADME, organism-based; set-up: dose 40 mg/kg, route oral; settings: in vivo
[9] = AUC (0 to infinity) in Sprague-Dawley rat at 3.6 mg/ml, po; assay type: ADME, organism-based; set-up: dose 3.6 mg/ml, time infinity, route oral; settings: plasma
[10] = system: Plasmodium berghei; assay: Antimalarial activity against GFP-transfected Plasmodium berghei ANKA infected in po dosed mouse assessed as reduction of parasitemia administered qd for 4 days; assay type: functional; settings: 96 h
[11] = Apparent AUC in GFP-transfected Plasmodium berghei ANKA infected mouse at 40 mg/kg, po qd for 4 days; assay type: ADME, organism-based; set-up: dose 40 mg/kg, route oral; settings: in vivo
[12] = system: Plasmodium falciparum; assay: microbe, parasite or virus in culture; settings: K1
Description: Antimalarial activity against multidrug-resistant Plasmodium falciparum K1

[13] = Apparent Cmax in GFP-transfected Plasmodium berghei ANKA infected mouse at 40 mg/kg, po qd for 4 days; assay type: ADME, organism-based; set-up: dose 40 mg/kg, route oral; settings: in vivo
[14] = Plasma total clearance in Sprague-Dawley rat at 3.6 mg/ml, iv; assay type: ADME, organism-based
[15] = Apparent half life in Sprague-Dawley rat at 3.6 mg/ml, po; assay type: ADME, organism-based; settings: in vivo, read-out: t1/2(app) (converted)
[16] = Cmax in Sprague-Dawley rat at 3.6 mg/ml, po; assay type: ADME, organism-based; set-up: dose 3.6 mg/ml, route oral; settings: in vivo
[17] = Oral bioavailability in Sprague-Dawley rat at 3.6 mg/ml; assay type: ADME, organism-based; settings: in vivo
[18] = Apparent half life in Sprague-Dawley rat at 3.6 mg/ml, iv; assay type: ADME, organism-based; settings: in vivo, read-out: t1/2(app) (converted)
[19] = system: Plasmodium falciparum; assay: microbe, parasite or virus in culture; settings: NF54
Description: as §1

[20] = system: Plasmodium berghei; assay: Antimalarial activity against GFP-transfected Plasmodium berghei ANKA infected in mouse assessed as mean survival days at 40 mg/kg, po qd for 4 days; assay type: functional
[21] = Solubility of the compound in 0.01M HCl at pH 2.5; assay type: physicochemical

With `CC(C)(C)c1cccc(-c2ccc3ncc(-c4ccc(S(C)(=O)=O)cc4)n3n2)c1` the solubility [1] was over 100 µg/mL and the IC50 [2] was “ND(Insoluble)”.

Work on `CS(=O)(=O)c1ccc(-c2cnc3ccc(-c4cccc(S(C)(=O)=O)c4)nn23)cc1` yielded a Vd [3] of 3.01 L/kg, an ED90 [4] of 1.5 mg/kg and an MSD [5] of 98 days. The AUC(0-inf) [6] was 24.3 µM·h, the Tmax [7] was 3 h and the Cave [8] was 1200 nM. It also gave an AUC(0-inf) [9] of 18.9 µM·h, an ED50 [10] of 1.4 mg/kg and an ED90 [10] of 15 mg/kg. It also gave an AUC at 96 h [11] of 27.8 µM·h, an IC50 [12] of 6.3 nM and a Cmax [13] of 2200 nM. The clearance [14] was 5.77 mL/min/kg, the half-life [15] was 7.08 h and the Cmax [16] was 1900 nM. For the same molecule, the bioavailability [17] was 77.7%, the half-life [18] was 7.15 h and the solubility [1] was over 100 µg/mL. It also gave an IC50 [19] of 7.3 nM and an MSD [20] of 7 days.

Molecule `CS(=O)(=O)c1ccc(-c2cnc3ccc(-c4cccc(C(=O)N5CCNCC5)c4)nn23)cc1` has an MSD [5] of under 40 days, an IC50 [12] of 11 nM and a Cmax [13] of 10 nM. For the same molecule, the solubility [21] was over 100 µg/mL, the solubility [1] was over 100 µg/mL and the IC50 [19] was 15 nM. It also gave an MSD [20] of 4 days.
